One compound from US11999726B2, “5-methyl-4-fluoro-thiazol-2-yl compounds” (Eli Lilly and Company, priority 2018, dated 2024) can be followed below.

As usually defined, the IC50 is the concentration that gives 50% inhibition.

For the assay, the target named is T1, human O-GlcNAc-β-N-acetylglucosaminidase (OGA) (Homo sapiens, UniProt O60502).
T1 construct: poly-histidine (HIS) tag (N); made in house; host or cells: Sf9 insect cells (Bac-to-Bac baculovirus, pFastBac1)
T1 sequence (O60502 1-916): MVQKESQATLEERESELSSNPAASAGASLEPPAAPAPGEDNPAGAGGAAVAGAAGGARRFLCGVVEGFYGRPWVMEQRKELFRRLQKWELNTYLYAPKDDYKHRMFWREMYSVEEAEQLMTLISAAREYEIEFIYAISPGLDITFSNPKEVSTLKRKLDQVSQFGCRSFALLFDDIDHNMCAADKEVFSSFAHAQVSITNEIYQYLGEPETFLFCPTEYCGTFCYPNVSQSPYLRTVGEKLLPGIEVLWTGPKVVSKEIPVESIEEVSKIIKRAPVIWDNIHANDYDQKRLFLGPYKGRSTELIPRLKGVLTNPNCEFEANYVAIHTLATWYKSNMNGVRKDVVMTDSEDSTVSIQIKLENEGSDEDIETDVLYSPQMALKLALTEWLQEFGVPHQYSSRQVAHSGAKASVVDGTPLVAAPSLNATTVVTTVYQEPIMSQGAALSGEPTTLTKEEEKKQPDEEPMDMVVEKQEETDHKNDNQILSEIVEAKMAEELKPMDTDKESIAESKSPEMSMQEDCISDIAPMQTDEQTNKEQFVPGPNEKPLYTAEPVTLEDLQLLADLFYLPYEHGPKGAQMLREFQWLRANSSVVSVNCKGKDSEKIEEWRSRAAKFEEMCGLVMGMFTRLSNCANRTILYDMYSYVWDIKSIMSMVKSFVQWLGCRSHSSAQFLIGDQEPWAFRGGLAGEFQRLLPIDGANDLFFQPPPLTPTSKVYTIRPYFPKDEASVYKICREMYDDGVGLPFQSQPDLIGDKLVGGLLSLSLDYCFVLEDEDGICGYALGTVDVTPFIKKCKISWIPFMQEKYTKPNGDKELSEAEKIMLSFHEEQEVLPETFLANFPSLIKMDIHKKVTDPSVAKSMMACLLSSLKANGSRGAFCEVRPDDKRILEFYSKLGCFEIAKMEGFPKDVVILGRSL
Nature of the assay: In Vitro Human OGA Enzyme Assay. The format is biochemical. As to conditions: FD-GlcNAc substrate 6.7 μM; 30 min pre-incubation with OGA enzyme; 60 min at room temperature; pH 7; n=3. Here is the method: In Vitro Human OGA Enzyme Assay
The nucleotide sequence encoding full-length human O-GlcNAc-β-N-acetylglucosaminidase (NM_012215) is inserted into pFastBac1 (Invitrogen) vector with an N-terminal poly-histidine (HIS) tag. Baculovirus generation is carried out according to the Bac-to-Bac Baculovirus Expression system (Invitrogen) protocol. Sf9 cells are infected at 1.5×10^6 cells/mL using 10 mL of P1 virus per Liter of culture and incubated at 28° C. for 48 hrs. Cells are spun down, rinsed with PBS and the pellets stored at −80° C. […]
Resin is then packed onto column and washed with 50 mM Tris, pH 8.0, 300 mM NaCl, 10% glycerol, 10 mM imidazole, 0.1% Triton™ X-100, 1 mM DTT, followed by 50 mM Tris, pH 8.0, 150 mM NaCl, 10 mM imidazole, 10% glycerol, 1 mM DTT. […] Fractions containing His-OGA are pooled and protein concentration measured with BCA ([…]).
The OGA enzyme catalyses the removal of O-GlcNAc from nucleocytoplasmic proteins. […] This fluorogenic substrate becomes fluorescent upon cleavage by OGA, so that the enzyme activity can be measured by the increase in fluorescence detected at 535 nm (excitation at 485 nm).
The assay buffer is prepared to give a final concentration of 50 mM […], 0.01% bovine serum albumin and 0.01% Triton™ X-100 in water, at pH 7. […] Then, without stopping the reaction, fluorescence is read. […]

`CC(=O)Nc1nc(F)c(CN2CC[C@H](Oc3cnc(C#N)cn3)C[C@@H]2C)s1` [Example 1, N-[5-[[(2S,4S)-4-(5-cyanopyrazin-2-yl)oxy-2-methyl-1-piperidyl]methyl]-4-fluoro-thiazol-2-yl]acetamide] yielded a 50% inhibitory concentration (IC50) of 0.343 nM.
